Measured values reported in the supplement of paper PMC5844555.

Columns and labels:
Assay in all cases: 3' UTR reporter interaction score (median-centred robust z-score of log2 firefly/Renilla activity); higher = less repression of the 3' UTR reporter
Details in all cases: HEK293T; 48 h
[1] = test system: MYC
How it was run: (§1)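 A firefly luc2P reporter carrying the gene's 3' UTR (100 ng), Renilla pRL-TK control (20 ng) and miRNA mimic (2.5 pmol) were co-transfected with DharmaFECT Duo into HEK293T cells plated at 10,000/well in 96-well plates. Luciferase activities were read 48 h post-transfection. The interaction score is the log firefly/Renilla ratio as a per-plate robust z-score from median and median absolute deviation, median-centred per miRNA, and more negative indicates interaction. Values are averages of at least two independent screens.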

[2] = test system: NOTCH1
How it was run: as §1

[3] = test system: FBXW7
How it was run: as §1

[4] = test system: PHF6
How it was run: as §1

[5] = test system: MYCN
How it was run: as §1

[6] = test system: MYT1L
How it was run: as §1

[7] = test system: ZEB2
How it was run: as §1

[8] = test system: HRAS
How it was run: as §1

[9] = test system: RB1
How it was run: as §1

[10] = test system: TP53
How it was run: as §1

[11] = test system: BRCA2
How it was run: as §1

[12] = test system: PHOX2B
How it was run: as §1

[13] = test system: MYB
How it was run: as §1

[14] = test system: EZH2
How it was run: as §1

| Sequence | 3' UTR reporter interaction score [1] | 3' UTR reporter interaction score [2] | 3' UTR reporter interaction score [3] | 3' UTR reporter interaction score [4] | 3' UTR reporter interaction score [5] | 3' UTR reporter interaction score [6] | 3' UTR reporter interaction score [7] | 3' UTR reporter interaction score [8] | 3' UTR reporter interaction score [9] | 3' UTR reporter interaction score [10] | 3' UTR reporter interaction score [11] | 3' UTR reporter interaction score [12] | 3' UTR reporter interaction score [13] | 3' UTR reporter interaction score [14] |
| --- | --- | --- | --- | --- | --- | --- | --- | --- | --- | --- | --- | --- | --- | --- |
| AAAACGGUGAGAUUUUGUUUU | 0.0587 | -1.23 | 0.403 | -0.604 | 0.148 | -0.225 | 0.0197 | -0.201 | -1.03 | -0.39 | -0.776 | 1.39 | 0.737 | – |
| AAACCGUUACCAUUACUGAGUUU | -0.972 | -0.371 | -0.543 | 0.358 | -0.445 | 1.68 | 0.377 | -0.683 | -0.236 | 0.812 | 0.378 | -1.13 | – | 0.71 |
| AAAGUGCUGUUCGUGCAGGUAG | -0.0736 | 0.83 | 0.872 | 0.684 | -0.359 | -1.47 | -0.0741 | -0.586 | 0.0538 | 0.803 | -0.619 | 1.63 | -1.38 | – |
| AAAGUGCUUCCUUUUAGAGGC | -0.277 | – | 0.555 | -0.00693 | 0.692 | -0.527 | 0.738 | -0.194 | 0.31 | 0.32 | -0.921 | 0.798 | -0.24 | -0.74 |
| AAAGUGCUUCUCUUUGGUGGGUU | -0.26 | 0.392 | 0.685 | -0.0534 | – | -0.567 | 0.955 | 0.266 | 0.799 | 0.499 | 0.0116 | 1.31 | -0.782 | -1.56 |
| AACAUUCAUUGCUGUCGGUGGG | 0.124 | -0.249 | 0.243 | 0.159 | – | -0.567 | 0.114 | -0.854 | 0.0638 | 0.443 | 0.08 | 1.46 | 0.0638 | 0.0847 |
| AAUAUAACACAGAUGGCCUGU | 0.886 | 0.989 | 0.647 | – | – | -0.827 | -0.625 | 0.155 | -1.07 | 0.139 | -0.646 | 0.795 | -0.573 | 0.634 |
| AAUUGCACGGUAUCCAUCUGUA | 1.4 | -0.751 | -6.72 | 0.891 | 0.653 | – | -3.51 | 0.777 | 1.19 | -1.12 | 0.52 | -1.97 | 0.44 | -0.862 |
| ACUUUAACAUGGAAGUGCUUUCU | 0.48 | -0.363 | – | -0.0712 | -0.0564 | 0.13 | -0.795 | -0.0142 | – | 0.121 | 0.253 | -0.178 | -0.31 | 0.735 |
| AGAUCAGAAGGUGAUUGUGGCU | -0.231 | 0.74 | 1.15 | 1.45 | -0.0131 | – | -0.441 | 0.462 | -1 | 0.622 | 0.117 | -0.105 | -2.02 | 0.782 |
| AGGCACCAGCCAGGCAUUGCUCAGC | -0.313 | -0.1 | -2.35 | 0.574 | -0.343 | 0.327 | -0.849 | -0.411 | 0.342 | 0.444 | – | -2.66 | 0.348 | 1 |
| AUGUAUAAAUGUAUACACAC | -0.0623 | -1.28 | 0.329 | -0.348 | -0.0355 | – | -1.04 | 0.0947 | -0.33 | 1.38 | 0.174 | 0.0154 | -0.578 | 0.905 |
| CAAAAACCACAGUUUCUUUUGC | 0.0969 | -0.821 | -0.0284 | 0.268 | 0.186 | -0.79 | -0.847 | -1.1 | 0.189 | -0.323 | – | 0.417 | -1.54 | 0.177 |
| CAAGAACCUCAGUUGCUUUUGU | 0.13 | -0.974 | -0.0454 | -0.741 | – | -0.132 | -1.03 | 1.03 | – | 0.405 | -0.995 | -0.954 | 0.335 | 0.928 |
| CACGCUCAUGCACACACCCAC | 0.38 | 0.398 | -1.61 | -3.04 | -0.371 | 0.0877 | 1.26 | – | -0.279 | 1.21 | 0.0228 | -1.58 | – | 0.315 |
| CAGUGCAAUAGUAUUGUCAAAGC | -0.162 | 1.2 | 0.383 | 1.54 | 0.282 | -1.35 | -0.0807 | – | 1.9 | -0.369 | 0.327 | -0.134 | -1.09 | -0.946 |
| CAUUAUUACUUUUGGUACGCG | -0.4 | -0.00418 | 0.0986 | -0.223 | – | -0.409 | 0.0582 | 0.225 | 0.974 | 0.0619 | -0.00235 | 0.437 | 0.454 | 0.119 |
| CUCCUGACUCCAGGUCCUGUGU | 1.1 | 0.232 | -0.332 | -4.57 | -0.0476 | – | -1.51 | 0.32 | 0.546 | 0.342 | 0.612 | -0.0385 | 0.427 | -0.51 |
| GGCAGGUUCUCACCCUCUCUAGG | 0.583 | 0.309 | -1.49 | -0.606 | 0.446 | -0.84 | -0.268 | 0.517 | – | -0.0357 | -0.0484 | -1.4 | – | 0.162 |
| GGCUAGCAACAGCGCUUACCU | -0.989 | -0.508 | 0.164 | -0.414 | 0.326 | 0.317 | 0.537 | -0.311 | 0.235 | 0.432 | -0.392 | 0.192 | -0.249 | – |
| GGUCCAGAGGGGAGAUAGG | -0.219 | 0.349 | -0.103 | 0.39 | -0.926 | 0.466 | -0.0605 | – | -0.274 | 0.186 | -0.441 | -0.69 | -0.834 | -0.024 |
